Assay results: patent US20140087003A1, “METHOD FOR TREATING VENOMOUS BITES AND STINGS” (priority 2012, published 2014)

Test: pH of the solution
Format: physicochemical

SMILES	pH of strong basic solutions used as high pH controls
[Na+].[OH-] [sodium hydroxide]	14
[K+].[OH-] [potassium hydroxide]	14
